Measurements published in patent US20200157135A1, “SIDE-CHAIN MODIFIED ERGOSTEROL AND STIGMASTEROL DERIVATIVES AS LIVER X RECEPTOR MODULATORS” (Ospedale San Raffaele srl, priority 2017, published 2020).

Legend:
[1] = molecular target: T1, hLXRα (Homo sapiens, UniProt Q13133); assay: luciferase assay with GAL-4 chimeric hLXRα receptor in human embryonic kidney 293 cells; type: cell-based
T1 sequence (Q13133 209-447 limits assumed): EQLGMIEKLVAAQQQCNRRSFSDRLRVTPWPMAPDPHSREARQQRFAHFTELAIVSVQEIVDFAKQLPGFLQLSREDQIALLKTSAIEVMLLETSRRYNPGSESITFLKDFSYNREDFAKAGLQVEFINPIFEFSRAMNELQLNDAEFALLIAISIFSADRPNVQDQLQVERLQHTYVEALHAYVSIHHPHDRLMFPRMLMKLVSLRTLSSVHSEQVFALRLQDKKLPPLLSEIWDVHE
Experimental: (§1) All the synthesized compounds were first tested for their ability to activate LXRs by using luciferase assays with GAL-4 chimeric receptors. These were performed by co-transfecting plasmids encoding hLXRα- and β-binding domains fused to GAL-4, with the respective responsive element conjugated with the luciferase reporter gene into the human embryonic kidney 293 cells.
(§2) Cell Culture and Co-transfection Assays. Human embryonic Kidney 293 cells (American Type Culture Collection) were cultured in Dulbecco's Modified Eagle's medium containing 10% of fetal bovine serum at 37° C. in humidified atmosphere of 5% CO2. HEK293 cells (4×10^4 cells per well) were transiently transfected in 48 well plate with the reporter plasmids pMH100X4-TK-luc (100 ng/well), Renilla (22 ng/well) together with 100 ng/well of pCMX-Gal4-RXR, pCMX-Gal4-PPAR-γ, pCMX-Gal4-PXR, pFA-CMV-FXR pCMX-Gal4-LXR-α or pCMX-Gal4-LXR-β plasmids using X-tremeGENE 9 DNA Transfection Reagent (Roche). Six hours after transfection, the cells were treated with the appropriate compound for 24 hours. Luciferase activities were analyzed by luciferase Dual Reporter Assay Systems (Promega) according to the manufacturer's protocol. GAL4-LXRs, GAL4-PPAR-γ, GAL4-RXR and TK-MHC100-luc plasmids were described in Villablanca et al.49 GAL4-PXR was a kind gift of Dr. Enrique Sainz (The Scripps Research Institute, La Jolla, USA). GAL4-FXR was a kind gift of Dr. Daniel Merk (Goethe-University Frankfurt am Main). The results obtained by luciferase assays and reported in Table 1 are from three to five independent experiments.
(§3) Statistical analysis. Data are expressed as mean±SEM and were analyzed for significance by ANOVA with Dunnet's multiple comparison tests. The analysis was performed with Prism software. Data in Table 1 are expressed as EC50±SD. In particular, the standard deviations were obtained by calculating the mean of the EC50 of each experiment (three to five independent experiments). The efficacy (%) of the compounds was calculated as the percentage of the compound effect, in terms of LXRα or β activation, versus 8 μM of 22R—HC±SD. The analyses were performed with Prism software.

[2] = molecular target: T2, hLXRβ (Homo sapiens, UniProt P55055); assay: luciferase assay with GAL-4 chimeric hLXRβ receptor in human embryonic kidney 293 cells; type: cell-based
T2 sequence (P55055 222-460 limits assumed): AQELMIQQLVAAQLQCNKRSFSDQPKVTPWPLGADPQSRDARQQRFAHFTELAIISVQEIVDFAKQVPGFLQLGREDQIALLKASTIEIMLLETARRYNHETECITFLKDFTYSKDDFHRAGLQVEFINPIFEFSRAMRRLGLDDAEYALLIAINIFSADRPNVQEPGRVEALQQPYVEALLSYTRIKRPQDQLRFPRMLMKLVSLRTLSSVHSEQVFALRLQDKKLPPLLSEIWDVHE
Experimental: as §1, §2, §3

[3] = tested on: FASN; assay: qPCR of FASN expression in PMA-differentiated U937 cells; type: cell-based, human; details: U937 differentiated with PMA 72 h; 10 μM, 6 hours
Experimental: (§4) U937 cells differentiated with PMA for 72 hours were treated with T0901317 (10 μM), 22R—HC (3) or with the tested compound (10 μM). […] (n=3/group). *p<0.05, **p<0.01, ***p<0.001.
LXR agonists induce the expression of target genes, which are involved in cholesterol homeostasis, particularly in the reverse cholesterol transport pathway.43 Indeed, LXR agonists induce the expression of ABCA1 both in macrophages and in many tissues of the periphery such as the intestine.44 Moreover, ABCA1 regulates cholesterol efflux to APOAI acceptors.45 In the liver, LXR activation promotes the biosynthesis of fatty acids, a process also termed as de novo lipogenesis by inducing the expression of the master regulator of hepatic lipogenesis sterol-regulatory element-binding protein 1C (SREBP-1c), as well as several downstream genes in the SREBP-1c pathway, including steroyl CoA desaturase 1 (SCD1) and fatty acid synthase (FASN).43 Therefore, it was investigated, by quantitative PCR (qPCR), the expression of ABCA1, SREBP1c, FASN, and SCD1, by using RNA from monocytic U937 cells (FIG. 3) and from hepatic HepG2 cells (FIG. 4) stimulated with our compounds, the non-steroidal agonist T0901317 or the endogenous ligand 22R—HC (3) as positive controls. […] Then, the induction of genes involved in the lipogenesis using the hepatic cell line HepG2. 43,22 was evaluated. […]
Quantitative Real-Time-PCR. […]

[4] = tested on: SCD1; assay: qPCR of SCD1 expression in PMA-differentiated U937 cells; type: cell-based, human; details: U937 differentiated with PMA 72 h; 10 μM, 6 hours
Experimental: as §4
LXR agonists induce the expression of target genes, which are involved in cholesterol homeostasis, particularly in the reverse cholesterol transport pathway.43 Indeed, LXR agonists induce the expression of ABCA1 both in macrophages and in many tissues of the periphery such as the intestine.44 Moreover, ABCA1 regulates cholesterol efflux to APOAI acceptors.45 In the liver, LXR activation promotes the biosynthesis of fatty acids, a process also termed as de novo lipogenesis by inducing the expression of the master regulator of hepatic lipogenesis sterol-regulatory element-binding protein 1C (SREBP-1c), as well as several downstream genes in the SREBP-1c pathway, including steroyl CoA desaturase 1 (SCD1) and fatty acid synthase (FASN).43 Therefore, it was investigated, by quantitative PCR (qPCR), the expression of ABCA1, SREBP1c, FASN, and SCD1, by using RNA from monocytic U937 cells (FIG. 3) and from hepatic HepG2 cells (FIG. 4) stimulated with our compounds, the non-steroidal agonist T0901317 or the endogenous ligand 22R—HC (3) as positive controls. […] Then, the induction of genes involved in the lipogenesis using the hepatic cell line HepG2. 43,22 was evaluated. […] Over the time, indeed, substantial efforts have been dedicated to the identification of LXR ligands able to turning on ABC transporter genes, without affecting lipogenic genes levels. This task is still one of the major challenge to the discovery of a clinically useful LXR modulator for atherosclerosis.
Quantitative Real-Time-PCR. U937 cell line was differentiated in foam macrophages with phorbol 12-myristate 13-acetate (PMA) 10 ng/ml (Sigma) for 72 hours at 37° C. in […] at the concentration of 3×10^6 cells in 10 ml RPMI 10% FBS. At day 3 nuclear receptor ligands were added for 6 hours. HepG2 cells were treated with the ligands as described by Quinet et al.22 Total RNA was purified by TRIZOL (Invitrogen, Carlsbad, Calif., USA). Reverse transcription was performed incubating 2 μg of total RNA 1 hour at 42° C. with MLV-reverse transcriptase (Promega). Quantitative PCR was performed using Sybr Green Master Mix (Applied Biosystems) and real-time PCR (Viia 7 Real Time PCR System, Applied Biosystems). All PCR reactions were done in triplicate. The comparative Ct method was used to quantify transcripts that were normalized for human GAPDH. the following primer pairs were used: […]

SMILES | melting point | EC50 ([1]; GAL4-hLXRα luciferase, HEK293, dose-response 32-1 μM, mean of three-five independent experiments, read-out: LXRα EC50 (μM) ± SD) | Emax ([1]; HEK293, 24 h, read-out: LXRα Efficacy (%) ± SD) | EC50 ([2]; GAL4-hLXRβ luciferase, HEK293, dose-response 32-1 μM, mean of three-five independent experiments, read-out: LXRβ EC50 (μM) ± SD) | Emax ([2]; HEK293, 24 h, read-out: LXRβ Efficacy (%) ± SD, % of compound effect versus 8 μM of 22R-HC) | FASN mRNA levels [3] | SCD1 expression [4]
CC(C)[C@@H](C)C[C@@H](O)[C@@H](C)[C@H]1CC[C@H]2C3=CC=C4C[C@@H](O)CC[C@]4(C)[C@H]3CC[C@]12C | 117.3 to 121 °C |  |  |  |  |  | 
CC(C)CC[C@@H](O)[C@@H](C)[C@H]1CC[C@H]2[C@@H]3CC=C4C[C@@H](O)CC[C@]4(C)[C@H]3CC[C@]12C [22R-HC (3), 22(R)-hydroxycholesterol, reference compound] |  | 6.71 ± 0.71 µM | 100% | 4.75 ± 0.12 µM | 100% | did not induce up-regulation of FASN and SCD1 transcripts | did not induce up-regulation of FASN and SCD1 transcripts
